Measurements as given in patent US6682892B2, “Method for treating herpes viruses” (priority 2000, dated 2004).
Where two headings read alike, the source gives them in different places.

Key:
Format in all cases: cell-based
HSV-2 MS = assay: Plaque reduction assay, HSV-2 MS
Description: (§1) Antiviral activity of compounds against herpesviruses such as HSV-1, HSV-2, or HCMV can be measured using plaque reduction assays. 0.1 ml of media containing approximately 50 PFU of virus is added to each well of a 24-well cell culture dish containing a confluent monolayer of cells (Vero cells for HSV-1 and HSV-2, HFF cells for HCMV). Compounds are dissolved in 100% DMSO and diluted in 100% DMSO as 200× stocks of the desired final drug concentration. Typically 5-6 two-fold dilutions are prepared for each compound. Dilutions of compounds are then added to media containing 0.8% CMC resulting in a final 1× drug concentration. After the virus-infected cells have incubated for 1 h at 37° C., the virus innoculum is removed and 1 ml of media containing 0.8% CMC and the various concentrations of compound is added to each well of the dish. The dish is incubated at 37° C. for approximately 2-3 days (HSV-1 and HSV-2) or 6-9 days (HCMV) to allow sufficient growth of virus to form plaques in the cell monolayer. Plaques can be observed and counted microscopically or by staining the cells with 0.1% crystal violet in 20% ethanol. […] Antiviral activity of a compound is expressed as the concentration of compound predicted to reduce the number of plaques in a well by 50% (IC50). The IC50 values are calculated by plotting the per cent inhibition vs. concentration of compound using EXCEL software for linear regression.
(§2) A panel of viruses consisting of four strains of HSV-1 (KOS, F, DJL, Patton) and three strains of HSV-2 (MS, 35D, 186) are tested in a plaque reduction assay against four different 4-oxo-DHQ compounds (#1, 2, 4, 5 as shown in FIG. 1), and one 4-oxo-DHTP compound (#3 as shown in FIG. 1) and against Acyclovir. The six drugs inhibited replication of the seven virus strains with IC50 values ranging from 2-10 μM (Table 1). In order to select for 4-oxo-DHQ resistant mutants, HSV-1 strains KOS, F, and DJL along with HSV-2 strains 186 and MS are serially passaged in the presence of 20 uM compound 1. Following the seventh passage, 4-oxo-DHQ resistant virus from each strain are plaque purified three times and high-titer stocks are made.

[1] = test system: HCMV AD169-M1 (V823A, V824L); assay: Plaque reduction assay, 4-oxo-DHQ resistant HCMV AD169-M1
Description: as §1
A plasmid containing the wild-type HCMV polymerase gene is modified to contain the V823A or V823A and V824L mutations using a site-directed mutagenesis Kit (Stratagene Corp.) and following the manufactures's protocol. HFF cells are plated into T25 tissue culture flasks to achieve 80% confluency at the time of the transfection. Wild type HCMV AD 169 DNA and plasmid DNA containing the mutant HCMV polymerase gene are mixed at a ratio of 1:2 (2 ug of viral DNA to 4 ug of plasmid DNA). DNA's are transfected using superfect transfection reagent according to methods recommended by the manufacturer (Quiagen Inc.). Cells are harvested five days posttransfection, freeze-thawed to release virus and half of the sample is used to infect HFF cell monolayers. Cells are overlayed with media containing 20 uM 4-oxo-DHQ compound 2 (see FIG. 1). Serial passage is repeated seven times in the presence of 20 uM compound 2 and virus isolates are then plaque purified three times prior to preparation of viral stock.
In order to isolate an HCMV resistant mutant marker rescue experiments are done. Plasmids containing the mutant polymerase genes are transfected into HFF cells along with wild type HCMV AD169 DNA. The resulting virus is then serially passaged in the presence of 20 uM compound 1 (see FIG. 1). A 4-oxo-DHQ resistant virus is isolated from marker rescue studies done with the HCMV polymerase gene containing mutations that result in the V823A, V824L amino acid changes, but not with the gene containing V823A change alone.

HSV-2 MS-M1 (V826A) = assay: Plaque reduction assay, 4-oxo-DHQ resistant HSV-2 MS-M1
Description: as §1
(§3) Vero cells are plated out at a density of 3.5×10^5 cells per well in a six well tissue culture plate. Cells are infected with HSV-1 KOS at a multiplicity of infection (moi) of 0.1 pfu/cell and 1 h post infection the cells are overlayed with 3 ml media containing 20 uM of a 4-oxo-DHQ. Cultures are incubated for 20 h at 37° C., freeze/thawed to release cell-associated virus, and 0.1 ml of culture is used to infect a new monolayer of Vero cells (one passage). Serial passage is repeated seven times in the presence of 20 uM drug. Virus isolates are then plaque purified three times prior to preparation of stocks. 4-oxo-DHQ resistant HSV-1 and HSV-2 may also be selected by the marker transfer method described below using wild-type HSV DNA and the corresponding mutant HSV polymerase gene.
as §2

HSV-1 KOS = assay: Plaque reduction assay, HSV-1 KOS
Description: as §1, §2

HSV-1 KOS-M1 (V823A) = assay: Plaque reduction assay, 4-oxo-DHQ resistant HSV-1 KOS-M1
Description: as §1, §3, §2

HCMV AD169 = assay: Plaque reduction assay, HCMV AD169
Description: as §1

HSV-2 186 = assay: Plaque reduction assay, HSV-2 186; settings: Table 1, plaque reduction, Vero cells
Description: as §1, §2

HSV-1 F = assay: Plaque reduction assay, HSV-1 F; settings: Table 1, plaque reduction, Vero cells
Description: as §1, §2

HSV-1 DJL = assay: Plaque reduction assay, HSV-1 DJL; settings: Table 1, plaque reduction, Vero cells
Description: as §1, §2

HSV-1 Patton = assay: Plaque reduction assay, HSV-1 Patton; settings: Table 1, plaque reduction, Vero cells
Description: as §1, §2

HSV-2 35D = assay: Plaque reduction assay, HSV-2 35D; settings: Table 1, plaque reduction, Vero cells
Description: as §1, §2

[2] = Table 5, wild type strain, read-out: Plaque Reduction Assay - IC50 (μM) HSV-2 MS
[3] = Table 5, mutant selected for 4-oxo-DHQ resistance, read-out: Plaque Reduction Assay - IC50 (μM) HCMV AD169-M1
[4] = Table 5, mutant selected for 4-oxo-DHQ resistance, read-out: Plaque Reduction Assay - IC50 (μM) HSV-2 MS-M1
[5] = Table 5, wild type strain, read-out: Plaque Reduction Assay - IC50 (μM) HSV-1 KOS
[6] = Table 5, mutant selected for 4-oxo-DHQ resistance, read-out: Plaque Reduction Assay - IC50 (μM) HSV-1 KOS-M1
[7] = Table 5, wild type strain, read-out: Plaque Reduction Assay - IC50 (μM) HCMV AD169
[8] = Human betaherpesvirus 5, AD169, read-out: HCMV AD169 - M1 IC50 (μM)
[9] = Human betaherpesvirus 5, AD169, Table 4, plaque reduction, wild type, read-out: HCMV AD169 IC50
[10] = Human betaherpesvirus 5, AD169, Table 5, wild type strain, read-out: Plaque Reduction Assay - IC50 (μM) HCMV AD169
[11] = Table 1, plaque reduction, Vero cells, read-out: IC50 (uM), HSV-2 MS
[12] = Table 1, plaque reduction, Vero cells, read-out: IC50 (uM), HSV-1 KOS

| SMILES | IC50 (HSV-2 MS; [2]) [µM] | IC50 [1, 3] [µM] | IC50 (HSV-2 MS-M1 (V826A); [4]) [µM] | IC50 (HSV-1 KOS; [5]) [µM] | IC50 (HSV-1 KOS-M1 (V823A); [6]) [µM] | IC50 (HCMV AD169; [7]) [µM] | also measured |
| --- | --- | --- | --- | --- | --- | --- | --- |
| CN(Cc1cc2c(=O)c(C(=O)NCc3ccc(Cl)cc3)cn(C)c2s1)CC(O)c1ccccc1 (racemic) [Compound 8] | 2.3 | 1.1 | > 50 | 5.1 | > 50 | < 0.1 | – |
| Nc1nc2c(ncn2COCCO)c(=O)[nH]1 [ACV, Acyclovir, reference compound] | – | – | – | – | – | – | IC50 (HSV-2 186; Human alphaherpesvirus 2): > 10 µM; IC50 (HSV-2 MS; Human alphaherpesvirus 2, Table 1, plaque reduction, Vero cells, read-out: IC50 (uM), HSV-2 MS): 10 µM; IC50 (HSV-2 MS; Human alphaherpesvirus 2, Table 5, wild type strain, read-out: Plaque Reduction Assay - IC50 (μM) HSV-2 MS): 2.4 µM; IC50 (HSV-1 F; Human alphaherpesvirus 1): 1.3 µM; IC50 (HSV-2 MS-M1 (V826A); Human alphaherpesvirus 2, read-out: Plaque Reduction Assay - IC50 (μM) HSV-2 MS-M1): 2.8 µM; IC50 (HSV-1 DJL; Human alphaherpesvirus 1): 1.8 µM; IC50 (HSV-1 Patton; Human alphaherpesvirus 1): 9.3 µM; IC50 (HSV-1 KOS; Human alphaherpesvirus 1, Table 1, plaque reduction, Vero cells, read-out: IC50 (uM), HSV-1 KOS): 3.6 µM; IC50 (HSV-1 KOS; Human alphaherpesvirus 1, Table 5, wild type strain, read-out: Plaque Reduction Assay - IC50 (μM) HSV-1 KOS): 3.9 µM; IC50 (HSV-1 KOS-M1 (V823A); Human alphaherpesvirus 1, read-out: Plaque Reduction Assay - IC50 (μM) HSV-1 KOS-M1): 4.4 µM; IC50 (HSV-2 35D; Human alphaherpesvirus 2): 6 µM |
| Nc1ccn([C@@H]2O[C@H](CO)[C@@H](O)[C@@H]2O)c(=O)n1 [AraC, Arabinosylcytidine, reference compound] | 0.2 | – | 0.1 | 0.2 | – | – | – |
| Cc1cn([C@@H]2O[C@H](CO)[C@@H](O)[C@@H]2O)c(=O)[nH]c1=O [AraT, Arabinosylthymine, reference compound] | 6.6 | – | 3.6 | 11.6 | 3.6 | – | – |
| Nc1ccn(C[C@@H](CO)OCP(=O)(O)O)c(=O)n1 [Cidofovir, reference compound] | – | – | – | – | – | – | IC50 [1, 8]: 0.6 µM; increase in IC50 / change in sensitivity, HCMV AD169-M1 [1]: < 2 fold; IC50 (HCMV AD169; [9]): 0.3 µM; IC50 (HCMV AD169; [10]): 0.4 µM |
| Cn1cc(C(=O)NCc2ccc(Cl)cc2)c(=O)c2cc(CN3CCOCC3)ccc21 [Compound 2] | 1.3 | 4 | > 50 | 3.3 | > 50 | 0.4 | IC50 (HSV-2 186): 2.3 µM; IC50 (HSV-2 MS; [11]): 2.5 µM; IC50 (HSV-1 F): 2.3 µM; IC50 (HSV-1 DJL): 2.6 µM; IC50 (HSV-1 Patton): 5.3 µM; IC50 (HSV-1 KOS; [12]): 3.8 µM; IC50 (HSV-2 35D): 5.4 µM |
| O=C(NCc1ccc(Cl)cc1)c1cn2c3c(cc(CN4CCOCC4)cc3c1=O)OCC2 [Compound 4] | 2.1 | – | 28.4 | 4.2 | > 50 | 0.6 | IC50 (HSV-2 186): 2.3 µM; IC50 (HSV-2 MS; [11]): 2.5 µM; IC50 (HSV-1 F): 2.1 µM; IC50 (HSV-1 DJL): 2.2 µM; IC50 (HSV-1 Patton): 4.3 µM; IC50 (HSV-1 KOS; [12]): 3.2 µM; IC50 (HSV-2 35D): 3.2 µM |
| O=C(NCc1ccc(Cl)cc1)c1cn(N2CCOCC2)c2ccc(CN3CCOCC3)cc2c1=O [Compound 5] | – | – | – | – | – | – | IC50 (HSV-2 186): 4.2 µM; IC50 (HSV-2 MS; [11]): 2.5 µM; IC50 (HSV-1 F): 2.6 µM; IC50 (HSV-1 DJL): 2.7 µM; IC50 (HSV-1 Patton): 10 µM; IC50 (HSV-1 KOS; [12]): 3.3 µM; IC50 (HSV-2 35D): 8.1 µM |
| O=C(NCc1ccc(Cl)cc1)c1cnc2c(F)cccc2c1O [Compound 6] | 28.8 | > 16 | > 50 | 24.6 | > 50 | 5.1 | – |
| O=C(NCc1ccc(Cl)cc1)c1cnc2ccc(CCCO)cc2c1O [Compound 7] | 8.8 | 3.4 | 27.9 | 6.5 | > 50 | 0.3 | – |
| O=C(NCc1ccc(Cl)cc1)c1cn2c(CO)cc3cc(CN4CCOCC4)cc(c1=O)c32 [Compound 9] | 0.9 | 3.1 | 48.7 | 1.9 | > 50 | < 0.1 | – |
| Cn1cc(C(=O)NCc2ccc(Br)cc2)c(=O)c2cc(CN3CCOCC3)sc21 [Compound 10] | 29.2 | > 16 | > 50 | 15.8 | > 50 | 1.1 | – |
| O=C(NCc1ccc(Cl)cc1)c1cn(C2COC2)c2ccc(CN3CCOCC3)cc2c1=O [Compound 11] | 3 | 3.9 | > 50 | 3.1 | > 50 | 0.7 | – |
| Cn1cc(C(=O)NCc2ccc(Cl)cc2)c(=O)c2cc(CN3CCOCC3)cc(C#CCO)c21 [Compound 12] | 0.4 | 1.1 | 12.5 | 1.3 | > 50 | 0.2 | – |
| Cn1cc(C(=S)NCc2ccc(Cl)cc2)c(=O)c2cc(C#CCO)ccc21 [Compound 13] | 5.3 | > 16 | > 50 | 5.5 | < 25 | 2.7 | – |
| Cn1nc(C(=O)NCc2ccc(Cl)cc2)c(=O)c2cc(C#CCO)ccc21 [Compound 14] | 1.6 | 18.4 | > 50 | 28.4 | > 50 | 0.9 | – |
| Cc1nc2c(cc1C#CCO)c(=O)c(C(=O)NCc1ccc(Cl)cc1)cn2C [Compound 15] | 5.9 | 7.7 | > 50 | > 50 | > 50 | 0.7 | – |
| Nc1nc(O)c2ncn(COC(CO)CO)c2n1 [Ganciclovir, reference compound] | – | – | – | – | – | – | IC50 [1, 8]: 1 µM; increase in IC50 / change in sensitivity, HCMV AD169-M1 [1]: < 2 fold; IC50 (HCMV AD169; [9]): 0.9 µM; IC50 (HCMV AD169; [10]): 0.8 µM |
| O=c1[nH]c(=O)n([C@H]2C[C@H](O)[C@@H](CO)O2)cc1I [Iudr, Iododeoxyuridine, reference compound] | 5 | – | 6.1 | 1.1 | 0.8 | – | – |
| O=C(O)P(=O)(O)O [PFA, Foscarnet, reference compound] | – | – | – | – | – | – | IC50 ([1]; Human betaherpesvirus 5, AD169, read-out: Plaque Reduction Assay - IC50 (μM) HCMV AD169-M1): < 20 µM; IC50 (HCMV AD169; [10]): 38 µM |
